Data reported in PMC10997755, “Discovery of a small-molecule inhibitor that traps Polθ on DNA and synergizes with PARP inhibitors” (Nature Communications, 2024).
Values joined by “and” are separate entries in the source; they are usually repeats but may differ in a detail not shown here. Identical values can stand only once. “Also recorded” adds a separate entry of the source.

Assays:
[1] = LogP; assay type: physicochemical; conditions: method not stated
[2] = target: T1, Polθ-pol (Homo sapiens, UniProt O75417); test: Cy5 fluorescence Polθ-pol DNA synthesis (strand displacement) IC50 assay; assay type: biochemical; conditions: for IC50: Polθ-pol DNA synthesis, Cy5 fluorescence
T1 construct: purified recombinant human Polθ-pol (comprising amino acid residues 1792–2590); made in house
T1 sequence (O75417 1792-2590): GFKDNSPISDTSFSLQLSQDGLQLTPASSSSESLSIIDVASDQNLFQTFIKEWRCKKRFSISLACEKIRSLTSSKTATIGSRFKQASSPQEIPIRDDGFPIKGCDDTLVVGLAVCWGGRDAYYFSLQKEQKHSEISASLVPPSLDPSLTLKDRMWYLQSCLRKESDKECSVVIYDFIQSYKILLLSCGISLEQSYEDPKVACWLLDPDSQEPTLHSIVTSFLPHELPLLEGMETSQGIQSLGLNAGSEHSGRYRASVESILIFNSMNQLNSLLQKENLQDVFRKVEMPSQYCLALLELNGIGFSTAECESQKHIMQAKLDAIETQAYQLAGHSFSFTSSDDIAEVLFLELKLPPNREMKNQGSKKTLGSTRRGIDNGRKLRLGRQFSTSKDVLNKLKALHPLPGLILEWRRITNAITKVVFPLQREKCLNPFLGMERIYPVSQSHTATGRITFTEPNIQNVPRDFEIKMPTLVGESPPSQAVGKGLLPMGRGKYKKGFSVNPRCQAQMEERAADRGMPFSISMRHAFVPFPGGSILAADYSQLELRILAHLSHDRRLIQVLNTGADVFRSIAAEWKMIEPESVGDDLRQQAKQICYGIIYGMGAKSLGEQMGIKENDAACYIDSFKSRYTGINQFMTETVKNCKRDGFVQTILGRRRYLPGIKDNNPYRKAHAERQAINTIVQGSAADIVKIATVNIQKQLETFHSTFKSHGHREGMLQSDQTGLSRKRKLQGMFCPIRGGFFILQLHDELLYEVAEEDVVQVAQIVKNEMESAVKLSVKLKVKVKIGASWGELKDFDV
How it was run: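 Recombinant human Polθ-pol (aa 1792–2590, 5 nM) extends 60 nM Cy5/quencher primer-template with 50 uM dNTPs in 25 mM Tris pH 7.8, 10 mM MgCl2, 2.5% DMSO at 37 °C. After 18 min, stopped with 20 mM EDTA; Cy5 fluorescence read, 7-point series in triplicate, inhibition from the mean.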

[3] = system: DLD1 BRCA2 -/- cells; test: Clonogenic assay; assay type: cell-based; conditions: for Average number of colonies counted / Normalized colonies (0 micro M = 100): per experiment; for selective killing / synthetic lethality in BRCA2-null DLD1 cells: colony survival, versus BRCA2-WT
How it was run: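 Cells seeded at low density (300–1000 per well, by plate size and genotype), medium changed every 2 days, colonies grown 10–12 days. Fixed in water:ethanol:acetic acid, stained with 0.5% crystal violet, then counted; IC50 from ≥3 independent experiments, mean ± SEM.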

[4] = system: DLD1 Parental cells; test: Clonogenic assay; assay type: cell-based; conditions: for Normalized colonies (0 micro M = 100): per experiment
Description: Cells were plated on six or twelve or twenty-four well plates. In six well plate, 1000 cells/ well of BRCA2 -/-, BRCA1 -/-, PALB2 mut and 500 cells/ well of wildtype pair was plated; In twelve well plate, 600 cells/ well of BRCA2 -/-, BRCA1 -/-, PALB2 mut and 400 cells/ well of wildtype pair was plated; In twenty-four well plate, 500 cells/ well of BRCA2 -/-, BRCA1 -/-, PALB2 mut and 300 cells/ well of wildtype pair was plated. For MEFs, 300 cells per well in six-well plate were seeded. The medium was replaced every 2 days until the colonies were ready for staining in 10–12 days. For staining: Medium was removed from plates, and cells were rinsed with PBS. Fixation was carried out with—Water: Ethanol: Acetic acid (5:4:1) for 30 min followed by staining of colonies with 0.5% crystal violet in Water: Ethanol (3:2) for 2 h at room temperature. The plates were rinsed with water and left for drying overnight at room temperature. Colonies were then counted and IC50 was calculated using results from 3 or more independent experiments. Response curves are shown as mean colony formation +/- S.E.M.

[5] = 10 μM compound, 5 nM PolQ, 60 nM DNA, 18 min

## CN(C(=O)Oc1c(N2CCN(CCO)C2=O)cc(C(F)(F)F)cc1C(F)(F)F)c1ccc(F)cc1 [RTx-161]
[1]
  logP: 3.6
[2]
  IC50: 4.1 nM and 4 to 6 nM
[3]; Homo sapiens, DLD-1, read-out: IC50 clonogenic survival
  IC50: ~1000 nM
[3]; RTX-161 0.185 micro M
  Normalized colonies, pooled Average of 3 experiments: 84.318%
  Average number of colonies counted: 67.3333 and 120 and 63.3333
  Normalized colonies (0 micro M = 100): 74.5387% and 90.4523% and 87.963%
[3]; RTX-161 0.555 micro M
  Normalized colonies, pooled Average of 3 experiments: 72.4221%
  Average number of colonies counted: 58.6667 and 97.6667 and 56.6667
  Normalized colonies (0 micro M = 100): 64.9446% and 73.6181% and 78.7037%
[3]; RTX-161 1.67 micro M
  Normalized colonies, pooled Average of 3 experiments: 40.9897%
  Average number of colonies counted: 28.3333 and 49.6667 and 39
  Normalized colonies (0 micro M = 100): 31.3653% and 37.4372% and 54.1667%
[3]; RTX-161 5 micro M
  Normalized colonies, pooled Average of 3 experiments: 19.5991%
  Average number of colonies counted: 11.6667 and 20.3333 and 22
[3]; RTX-161 15 micro M
  Normalized colonies, pooled Average of 3 experiments: 11.8019%
[3]
  selective killing / synthetic lethality in BRCA2-null DLD1 cells: selective killing
[4]; DLD1, colony survival
  effect in BRCA2-WT cells: little to no effect
[4]; RTX-161 0.185 micro M
  Normalized colonies, pooled Average of 3 experiments: 97.5686%
  Normalized colonies (0 micro M = 100): 97.878% and 98.6301% and 96.1977%
[4]; RTX-161 0.555 micro M
  Normalized colonies, pooled Average of 3 experiments: 95.8582%
  Normalized colonies (0 micro M = 100): 95.8175% and 96.5517% and 95.2055%
[4]; RTX-161 1.67 micro M
  Normalized colonies, pooled Average of 3 experiments: 94.2875%
  Normalized colonies (0 micro M = 100): 93.5361% and 95.4907% and 93.8356%
[4]; RTX-161 5 micro M
  Normalized colonies, pooled Average of 3 experiments: 93.9179%
  Normalized colonies (0 micro M = 100): 93.1559% and 96.817% and 91.7808%
[4]; RTX-161 15 micro M
  Normalized colonies, pooled Average of 3 experiments: 93.9599%
  Normalized colonies (0 micro M = 100): 90.8745% and 94.4297% and 96.5753%

## CN(C(=O)Oc1ccc(C(F)(F)F)cc1C(F)(F)F)c1ccc(F)cc1 [MC160385]
[1]
  logP: ~5.3
[2]
  improved potency relative to hit MC28003: ~ 18 fold
  IC50: 9 nM
[2]; [5]
  raw signal, Positive Control, Average: 21.00
  raw signal, Positive Control, Trial 1-3: 20.96 and 21.46 and 20.58
[2]; MC160385 0.0014 μM, 5 nM PolQ
  Cy5 fluorescence, Average of Trial 1-3: 363.79
[2]; MC160385 0.0041 μM
  activity at 0.0041 µM: 77.8%
  inhibition at 0.0041 µM: 22.2%
[2]; MC160385 0.0041 μM, 5 nM PolQ
  Cy5 fluorescence, Average of Trial 1-3: 309.29
[2]; MC160385 0.0123 μM
  activity at 0.0123 µM: 38.7%
  inhibition at 0.0123 µM: 61.3%
[2]; MC160385 0.0123 μM, 5 nM PolQ
  Cy5 fluorescence, Average of Trial 1-3: 203.69
[2]; MC160385 0.0370 μM
  activity at 0.037 µM: 3.23%
  inhibition at 0.037 µM: 96.8%
[2]; MC160385 0.0370 μM, 5 nM PolQ
  Cy5 fluorescence, Average of Trial 1-3: 109.39
[2]; MC160385 0.1111 μM
  activity at 0.1111 µM: -2.07%
  inhibition at 0.1111 µM: 102%
[2]; MC160385 0.1111 μM, 5 nM PolQ
  Cy5 fluorescence, Average of Trial 1-3: 94.78
[2]; MC160385 0.3333 μM
  activity at 0.3333 µM: -2.9%
  inhibition at 0.3333 µM: 103%
[2]; MC160385 0.3333 μM, 5 nM PolQ
  Cy5 fluorescence, Average of Trial 1-3: 92.26
[2]; MC160385 1.0000 μM
  activity at 1 µM: -1.58%
  inhibition at 1 µM: 102%
[2]; MC160385 1.0000 μM, 5 nM PolQ
  Cy5 fluorescence, Average of Trial 1-3: 95.83
[2]; MC160385 2 μM, sheet Fig. 1 b
  Positive Control fluorescence, Average: 100.15
[2]; MC160385 10 μM, 5 nM PolQ, 18 min, sheet Fig. 1 g
  Positive Control fluorescence, Average: 33.58
[3]
  selective killing / synthetic lethality in BRCA2-null DLD1 cells: failed to show selective killing; also recorded: failure
